Format in all cases: binding
The target in test [1] is T1, MLKL (Homo sapiens, UniProt Q8NB16, E258K).
T1 construct: full-length hMLKL(2–471)
T1 sequence (Q8NB16 2-471 E258K): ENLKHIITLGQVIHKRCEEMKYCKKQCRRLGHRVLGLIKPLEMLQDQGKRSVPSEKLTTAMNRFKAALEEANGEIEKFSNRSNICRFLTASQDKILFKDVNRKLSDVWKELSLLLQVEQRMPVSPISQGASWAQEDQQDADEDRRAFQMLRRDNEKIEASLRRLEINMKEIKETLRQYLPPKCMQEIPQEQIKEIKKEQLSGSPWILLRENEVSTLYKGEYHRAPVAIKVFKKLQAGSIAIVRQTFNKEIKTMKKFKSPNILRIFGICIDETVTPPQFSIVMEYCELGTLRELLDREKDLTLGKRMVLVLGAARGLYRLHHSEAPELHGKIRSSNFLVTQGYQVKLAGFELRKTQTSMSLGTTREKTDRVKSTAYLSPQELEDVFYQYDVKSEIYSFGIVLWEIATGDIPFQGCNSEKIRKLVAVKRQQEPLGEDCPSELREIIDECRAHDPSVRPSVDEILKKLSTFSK
Description: thermal shift assay with ATP titration.

Test [2] deals with T2, MLKL (Homo sapiens, UniProt Q8NB16, S358E/T357E).
T2 construct: full-length hMLKL(2–471)
T2 sequence (Q8NB16 2-471 T357E/S358E): T1 sequence (Q8NB16 2-471 E258K) with K257E, T356E, S357E
Kind of test: thermal shift assay with ATP titration.

Test [3] has as its target T3, MLKL (Homo sapiens, UniProt Q8NB16, E351K).
T3 construct: full-length hMLKL(2–471)
T3 sequence (Q8NB16 2-471 E351K): T1 sequence (Q8NB16 2-471 E258K) with K257E, E350K
Kind of test: thermal shift assay with ATP titration; HDX-MS protection around the ATP pocket.

The target in test [4] is T4, MLKL (Homo sapiens, UniProt Q8NB16).
T4 construct: full-length hMLKL(2–471)
T4 sequence (Q8NB16 2-471): T1 sequence (Q8NB16 2-471 E258K) with K257E
Description: thermal shift assay (SYPRO Orange) with ATP titration, no divalent cations; supported by AUC.

Test [5] addresses T5, MLKL (Homo sapiens, UniProt Q8NB16, G330E).
T5 construct: full-length hMLKL(2–471)
T5 sequence (Q8NB16 2-471 G330E): T1 sequence (Q8NB16 2-471 E258K) with K257E, G329E
Kind of test: thermal shift assay with ATP titration.

In test [6] the target is T6, MLKL (Homo sapiens, UniProt Q8NB16, D107A/E111A).
T6 construct: full-length hMLKL(2–471)
T6 sequence (Q8NB16 2-471 D107A/E111A): T1 sequence (Q8NB16 2-471 E258K) with D106A, E110A, K257E
Kind of test: thermal shift assay with ATP titration.

In test [7] the target is T7, MLKL (Homo sapiens, UniProt Q8NB16, K157A).
T7 construct: full-length hMLKL(2–471)
T7 sequence (Q8NB16 2-471 K157A): T1 sequence (Q8NB16 2-471 E258K) with K156A, K257E
Kind of test: thermal shift assay with ATP titration.

The values that follow come from paper PMC6013482, “Conformational switching of the pseudokinase domain promotes human MLKL tetramerization and cell death by necroptosis” (Nature Communications, 2018).

Changes are numbered by the printed parent chain.

In the case of `Nc1ncnc2c1ncn2[C@@H]1O[C@H](COP(=O)(O)OP(=O)(O)OP(=O)(O)O)[C@@H](O)[C@H]1O` [ATP], the Kd is 24 ± 2 µM at MLKL [1]; 56 ± 8 µM on MLKL [2]; 26 ± 6 µM at MLKL [3]; 36 ± 4 µM at MLKL [4]; 28 ± 6 µM at MLKL [5]; 23 ± 2 µM on MLKL [6]. Besides, the Kd at MLKL [7] is 164 ± 31 µM.

A word on the Kd: it is the constant that tells how readily two partners part at equilibrium.
